Laboratory results published in patent US20210177803A1, “NEW PHARMACEUTICAL USE FOR THE TREATMENT OF HEART FAILURE” (Novartis AG, priority 2018, published 2021).
Like-named read-outs stand apart in the source and are kept apart here.

Tests used:
[1] = test system: patients with HFrEF following hemodynamic stabilization after an episode of ADHF; details: for Proportion of patients achieving the target dose of 200 mg LCZ696 b.i.d.: 10 weeks after randomization; for Odds ratio (OR) for up-titration success to 200 mg b.i.d.: multivariate logistic regression
Source text: The study design comprises three Epochs (phases): the Screening Epoch; the Treatment Epoch defined as 10 weeks after Randomization; and 16-week Follow-up Epoch. Patients were stratified into three groups based on their pre-admission treatment status: (a) receiving an angiotensin-converting enzyme inhibitor (ACEI), (b) receiving an angiotensin receptor blocker (ARB), or (c) ACEI/ARB-naïve patients.
The study population consists of patients hospitalized for an episode of acute decompensation of heart failure who are diagnosed with CHF NYHA class II-to-IV and reduced ejection fraction (LVEF 40%). Patients can be either with first presentation (de novo), or acute decompensation of HF due to deterioration in patients with a prior history of (chronic) HF.
Inclusion Criteria: • 1. Patients hospitalized due to acute decompensated HF episode (ADHF) as primary diagnosis) and consistent Signs and Symptoms. • 2. Diagnosis of HF New York Heart Association class II-to-IV and reduced ejection fraction: Left ventricular ejection fraction 40% at Screening. • 3. […] Stabilized (while in the hospital) for at least 24 h leading to Randomization defined as: • No need for IV diuretics in the past 24 h prior to signing ICF • Systolic blood pressure (SBP) 110 mm Hg for at least 6 h prior to Randomization • 5. Meeting one of the following criteria: • Patients on any dose of ACEI or ARB at screening • ACEI/ARB naïve patients and patients not on ACEI or ARB for at least 4 weeks before screening.
The basis for up-titration toward the target dose was taking into consideration tolerability (i.e., incidence of hypotension, renal or hepatic impairment and hyperkalemia) based on clinical evaluation and laboratory assessment.

[2] = test system: patients hospitalized for acute HFrEF; test: PIONEER-HF study: clinical outcomes; type: in vivo, human
Procedure: The study rational and design is described in by Velazquez E J, et al. .in Am.
(§1) The starting dose and all subsequent doses were selected to optimize the highest tolerated dose based on a systolic blood pressure (SBP) algorithm.
(§2) Inclusion Criteria: • Patients ≥18 y of age with the capacity to provide written informed consent. • Currently hospitalized for a primary diagnosis of HF, including symptoms and signs of fluid overload. • Eligible patients will be randomized no earlier than 24 hours and up to ten days after presentation while still hospitalized as long as meet the following definition of stable status: • SBP≥100 mm Hg for the preceding 6 hours prior to randomization; no symptomatic hypotension • No increase (intensification) in i.v. diuretic dose within last 6 hours prior to randomization • No i.v. inotropic drugs for 24 hours prior to randomization • No i.v. vasodilators including nitrates within last 6 hours prior to randomization • Left ventricular EF 40% within the past 6 m (including current hospitalization) using echocardiography, multi gated acquisition scan (MUGA), CT scanning, MRI or ventricular angiography, provided no subsequent study documented an EF of >40% • Elevated NT-proBNP≥1600 pg/mL OR BNP≥400 pg/mL during current hospitalization.

[3] = test system: patients hospitalized for acute HFrEF
Procedure: as §1, §2

[4] = test system: high-sensitivity cardiac troponin (hsTnT); details: compared with enalapril, 4 weeks
Procedure: (§3) Circulating high-sensitivity cardiac troponin (hsTn) and soluble ST2 (sST2) reflect myocardial stress in patients with heart failure (HF). Production of cyclic guanosine 3′5′ monophosphate (cGMP) in response to activation of natriuretic peptide receptors reduces cardiac afterload and preload.
(§4) Ratios of geometric means (timepoint/baseline) were determined and compared as a ratio for sacubitril/valsartan vs. enalapril.

urinary cGMP = details: compared with enalapril, 1 week
Procedure: as §3, §4

[5] = test system: ambulatory HF patients with an ejection fraction ≤40%; details: compared with enalapril; cited from earlier work
[6] = 8 weeks, LCZ696 n = 440, enalapril n = 441
[7] = compared with enalapril, 8-week study period

CCCCC(=O)N(Cc1ccc(-c2ccccc2-c2nn[n-]n2)cc1)[C@H](C(=O)[O-])C(C)C.CCOC(=O)[C@H](C)C[C@@H](Cc1ccc(-c2ccccc2)cc1)NC(=O)CCC(=O)[O-].[Na+].[Na+].[Na+] [LCZ696, trisodium [3((1S,3R)-1-biphenyl-4-ylmethyl-3-ethoxycarbonyl-1-butylcarbamoyl) propionate-(S)-3′-methyl-2′-(pentanoyl{2″-(tetrazol-5-ylate)biphenyl-4′-ylmethyl}amino)butyrate]hemipentahydrate]
Relative RR, primary endpoint (target dose 200 mg b.i.d.) ([1]; ACEI or ARB strata compared to naive): 1.01
Patients who achieved the target dose ([1]; ACEI/ARB naïve patients): 48.3%
RRR, achieved target dose ([1]; ACEI/ARB naïve vs prior ACEI/ARB use): 1.008
Patients who achieved and maintained any dose of LCZ696 for at least 2 weeks leading to week 10 ([1]; both groups): More than 86%
Subjects maintained on any dose at week 10 ([1]; both groups (ACEI/ARB naïve and not naïve)): 88%
Patients able to achieve and maintain any dose at week 10 ([1]; de novo HF patients): 90%
Patients who achieved the target dose ([1]; de novo HF patients): 56.0%
RRR, achieved target dose ([1]; de novo HF vs prior HF diagnosis): 1.30
Feasibility and tolerability of early initiation (in words) ([1]; in-hospital or shortly after discharge): feasible and overall well tolerated
Proportion of patients achieving the target dose of 200 mg LCZ696 b.i.d. ([1]; post-discharge arm): 50.4%
Patients who achieved and maintained any dose of LCZ696 for at least 2 weeks leading to week 10 ([1]; post-discharge initiation): 88.8%
Patients who achieved and maintained either 100 mg b.i.d. or 200 mg b.i.d. for at least 2 weeks leading to week 10 ([1]; post-discharge initiation): 68%
RRR, achieved and maintained 100 mg or 200 mg b.i.d. ([1]; pre- vs post-discharge): 0.919
RRR, achieved and maintained any dose ([1]; pre- vs post-discharge): 0.973
Relative risk ratio (RRR), achieving target dose 200 mg b.i.d. ([1]; pre- vs post-discharge, 10 weeks): 0.893
Proportion of patients achieving the target dose of 200 mg LCZ696 b.i.d. ([1]; pre-discharge arm): 45.0%
Patients who achieved and maintained any dose of LCZ696 for at least 2 weeks leading to week 10 ([1]; pre-discharge initiation): 86.4%
Patients who achieved and maintained either 100 mg b.i.d. or 200 mg b.i.d. for at least 2 weeks leading to week 10 ([1]; pre-discharge initiation): 62.5%
Odds ratio (OR) for up-titration success to 200 mg b.i.d. ([1]; predictor: assignment to pre- or post-discharge initiation): 1.21
Odds ratio (OR) for up-titration success to 200 mg b.i.d. ([1]; predictor: prior use of an ACEI or ARB): 1.04
Patients who achieved the target dose ([1]; subjects with a prior HF diagnosis): 44.8%
Patients who achieved the target dose ([1]; subjects with prior ACEI/ARB use): 47.9%
Additional HF drug [2, 6]: 75 (17.0) number (%)
Composite (death, rehospitalization for HF, LVAD implantation, or listing for cardiac transplant) [2, 6]: 41 (9.3) number (%)
Death [2, 6]: 10 (2.3) number (%)
Expanded composite (composite plus unplanned outpatient visits requiring IV diuretics, or increase >50% in diuretic dose) [2, 6]: 262 (59.5) number (%)
HF rehospitalization [2, 6]: 35 (8.0) number (%)
Increase in diuretic dose >50% [2, 6]: 242 (55.0) number (%)
LVAD implantation [2, 6]: 1 (0.2) number (%)
Listing for cardiac transplant [2, 6]: 0 (0.0) number (%)
Unplanned outpatient visits requiring intravenous diuretics [2, 6]: 2 (0.5) number (%)
Additional HF drug, HR (95% CI) ([2]; LCZ696 vs. Enalapril): 0.89 (0.65, 1.22)
Death, HR (95% CI) ([2]; LCZ696 vs. Enalapril): 0.66 (0.30, 1.48)
Expanded composite, HR (95% CI) ([2]; LCZ696 vs. Enalapril): 0.409
HF rehospitalization, HR (95% CI) ([2]; LCZ696 vs. Enalapril): 0.56 (0.37, 0.84)
Increase in diuretic dose >50%, HR (95% CI) ([2]; LCZ696 vs. Enalapril): 0.84 (0.84, 1.21)
LVAD implantation, HR (95% CI) ([2]; LCZ696 vs. Enalapril): 0.99 (0.06, 15.97)
Unplanned outpatient visits requiring intravenous diuretics, HR (95% CI) ([2]; LCZ696 vs. Enalapril): 1.00 (0.14, 7.07)
Absolute risk reduction, clinical composite [2, 7]: 7.5%
Relative risk reduction, clinical composite [2, 7]: 44.6%
Hyperkalemia ([3]; 8 weeks): 11.6%
Symptomatic hypotension ([3]; 8 weeks): 10.0%
Worsening renal function ([3]; 8 weeks): 13.6%
Angioedema, HR ([3]; LCZ696 vs. Enalapril): 0.17
Hyperkalemia, HR ([3]; LCZ696 vs. Enalapril): 1.25
Symptomatic hypotension, HR ([3]; LCZ696 vs. Enalapril): 1.10
Worsening renal function, HR ([3]; LCZ696 vs. Enalapril): 0.93
Angioedema in patients who identified as black (in words) [3]: no angioedema
Angioedema in patients who identified as black (in words) ([3]; listed as sacubitril-valsartan): no cases
Angioedema events (number in words) ([3]; blinded adjudication): one
Angioedema ([3]; blinded adjudication, 8 weeks): 0.2%
Patients in whom the maximum target dose had been achieved ([3]; by the week 8 study visit): 56%
Study drug prematurely discontinued prior to 8 weeks ([3]; excluding discontinuation due to death): 19.6%
Tolerability (in words) ([3]; initiated after initial stabilization after an ADHF episode): well tolerated
Greater reduction in hsTnT [4]: 16%
Serial urinary cGMP (in words) (urinary cGMP): increased
Relative risk reduction in cardiovascular mortality and hospitalization for worsening HF [5]: 20%
